Experiment: xn = mol fraction of the nth substance listed

CC(O)CO (stereo not given) + CCCO
313 K, 101 kPa
Conditions	viscosity [mPa·s]
x1 = 0.1	1.9
x1 = 0.3	2.9
x1 = 0.5	4.8
x1 = 0.7	8.3
x1 = 0.9	15

ClC=C(Cl)Cl + CCCO
viscosity [mPa·s]
Conditions	x1 = 0.0848	x1 = 0.1725	x2 = 0.024	x2 = 0.1062	x2 = 0.253	x2 = 0.3927	x2 = 0.5454	x2 = 0.6998	x2 = 0.9543
298.15 K, 101.3 kPa	1.705	1.485	–	–	–	–	–	–	–
303.15 K, 101 kPa	–	–	0.598	0.692	0.86	1.019	1.193	1.37	1.537
313.15 K, 101 kPa	–	–	0.55	0.617	0.735	0.848	0.97	1.095	1.219
323.15 K, 101 kPa	–	–	0.487	0.539	0.634	0.722	0.82	0.919	1.018

NC1CCCCC1 + CCCO
viscosity [mPa·s], 101 kPa
Conditions	293.15 K	298.15 K	303.15 K
x1 = 0.0549	2.253	2.004	1.773
x1 = 0.102	2.29	2.036	1.803
x1 = 0.1983	2.392	2.12	1.871
x1 = 0.3117	2.512	2.213	1.946
x1 = 0.3529	2.548	2.241	1.968
x1 = 0.4031	2.578	2.266	1.985
x1 = 0.4387	2.588	2.274	1.996
x1 = 0.4926	2.589	2.271	1.999
x1 = 0.5491	2.568	2.261	1.992
x1 = 0.6111	2.534	2.229	1.964
x1 = 0.6604	2.485	2.19	1.928
x1 = 0.704	2.454	2.168	1.91
x1 = 0.7984	2.349	2.078	1.837
x1 = 0.8844	2.241	1.991	1.766
x1 = 0.9389	2.197	1.955	1.735

O=C1CCCC1 + CCCO
303.15 K, 101 kPa
Conditions	viscosity [mPa·s]
x1 = 0.1001	1.333
x1 = 0.2566	1.091
x1 = 0.4203	0.974
x1 = 0.5821	0.922
x1 = 0.7382	0.915
x1 = 0.8967	0.935

CC(C)Br + CCO
viscosity [mPa·s], 101 kPa
Conditions	x1 = 0.1	x1 = 0.2	x1 = 0.3	x1 = 0.4	x1 = 0.5	x1 = 0.6	x1 = 0.7	x1 = 0.8	x1 = 0.9
298.15 K	0.9584	0.8399	0.7419	0.6681	0.601	0.546	0.505	0.4811	0.4782
303.15 K	0.8856	0.7784	0.6899	0.6233	0.5616	0.5172	0.4819	0.4653	0.4647
308.15 K	0.8081	0.711	0.6407	0.5773	0.5251	0.4875	0.4624	0.4474	0.4513
313.15 K	0.7913	0.7008	0.6327	0.5668	0.5161	0.4739	0.4489	0.4352	0.4285
318.15 K	0.7206	0.644	0.5803	0.5262	0.4829	0.4499	0.4268	0.4152	0.4137

CC(O)CO (stereo not given) + CCO
Conditions	viscosity [mPa·s]
298.15 K, 101 kPa, x1 = 0.1	1.55
298.15 K, 101 kPa, x1 = 0.2	2.215
298.15 K, 101 kPa, x1 = 0.3	3.185
298.15 K, 101 kPa, x1 = 0.4	4.612
298.15 K, 101 kPa, x1 = 0.5	6.698
298.15 K, 101 kPa, x1 = 0.6	9.706
298.15 K, 101 kPa, x1 = 0.7	14.06
298.15 K, 101 kPa, x1 = 0.8	20.27
298.15 K, 101 kPa, x1 = 0.9	30.07
303 K, 100 kPa, x1 = 0.6	6.734
308 K, 100 kPa, x1 = 0.6	5.729
308.15 K, 101 kPa, x1 = 0.1	1.24
308.15 K, 101 kPa, x1 = 0.2	1.719
308.15 K, 101 kPa, x1 = 0.3	2.409
308.15 K, 101 kPa, x1 = 0.4	3.377
308.15 K, 101 kPa, x1 = 0.5	4.699
308.15 K, 101 kPa, x1 = 0.6	6.604
308.15 K, 101 kPa, x1 = 0.7	9.261
308.15 K, 101 kPa, x1 = 0.8	12.96
308.15 K, 101 kPa, x1 = 0.9	18.15
313 K, 100 kPa, x1 = 0.6	5.069
318 K, 100 kPa, x1 = 0.6	4.427
318.15 K, 101 kPa, x1 = 0.1	0.9282
318.15 K, 101 kPa, x1 = 0.2	1.317
318.15 K, 101 kPa, x1 = 0.3	1.854
318.15 K, 101 kPa, x1 = 0.4	2.576
318.15 K, 101 kPa, x1 = 0.5	3.527
318.15 K, 101 kPa, x1 = 0.6	4.797
318.15 K, 101 kPa, x1 = 0.7	6.46
318.15 K, 101 kPa, x1 = 0.8	8.621
318.15 K, 101 kPa, x1 = 0.9	11.43

ClC=C(Cl)Cl + CCO
viscosity [mPa·s], 101.33 kPa
Conditions	x2 = 0.15	x2 = 0.3	x2 = 0.45	x2 = 0.6	x2 = 0.75	x2 = 0.9
293.15 K	0.6368	0.7027	0.7685	0.8344	0.9003	0.9601
303.15 K	0.59	0.6477	0.7071	0.765	0.8177	0.8581
313.15 K	0.521	0.569	0.6186	0.6692	0.7193	0.7593

O=C1CCCC1 + CCOC(=O)OCC
viscosity [mPa·s], 101 kPa
Conditions	x2 = 0.0876	x2 = 0.1356	x2 = 0.2458	x2 = 0.3359	x2 = 0.4228	x2 = 0.5415	x2 = 0.6475	x2 = 0.7513	x2 = 0.8664	x2 = 0.9352
303.15 K	0.958	0.937	0.891	0.859	0.83	0.797	0.77	0.747	0.725	0.713
308.15 K	0.893	0.873	0.833	0.803	0.776	0.745	0.722	0.701	0.681	0.668
313.15 K	0.835	0.819	0.783	0.757	0.733	0.705	0.683	0.664	0.644	0.632

CC(CCO)CC(C)(C)C (stereo not given) + CCOC(C)=O
viscosity [mPa·s], 101.33 kPa
Conditions	x2 = 0.1539	x2 = 0.2904	x2 = 0.4122	x2 = 0.5219	x2 = 0.6208	x2 = 0.7106	x2 = 0.7925	x2 = 0.8677	x2 = 0.9364
298.15 K	5.471	3.367	2.072	1.443	1.075	0.879	0.672	0.514	0.486
303.15 K	4.696	2.968	1.837	1.305	0.975	0.789	0.631	0.526	0.475
308.15 K	4.016	2.452	1.646	1.181	0.934	0.724	0.586	0.495	0.439

CC(O)CO (stereo not given) + CCOC(C)=O
viscosity [mPa·s], 101.3 kPa
Conditions	x2 = 0.0929	x2 = 0.1906	x2 = 0.2984	x2 = 0.4082	x2 = 0.5085	x2 = 0.6062	x2 = 0.7032	x2 = 0.7968	x2 = 0.8998
298.15 K	20.11	10.09	5.084	2.919	1.869	1.238	0.8932	0.6933	0.5327
303.15 K	15.92	8.28	4.306	2.516	1.663	1.115	0.8175	0.6419	0.5008
308.15 K	12.64	6.743	3.661	2.193	1.47	1.011	0.7525	0.5957	0.4714
313.15 K	10.17	5.587	3.146	1.924	1.313	0.9178	0.6971	0.5565	0.4442
318.15 K	8.35	4.705	2.729	1.705	1.177	0.8394	0.6418	0.5191	0.4197
323.15 K	6.893	4.021	2.377	1.514	1.072	0.7691	0.5964	0.4882	0.3962

ClC=C(Cl)Cl + CCOCCO
viscosity [mPa·s], 101.33 kPa
Conditions	x1 = 0.1191	x1 = 0.2226	x1 = 0.3214	x1 = 0.4322	x1 = 0.5234	x1 = 0.6128	x1 = 0.7066	x1 = 0.8105	x1 = 0.9057
303.15 K	1.453	1.286	1.134	0.976	0.865	0.769	0.687	0.614	0.557
313.15 K	1.166	1.052	0.946	0.829	0.747	0.676	0.612	0.555	0.511

CC(O)CO (stereo not given) + CN1CCCC1=O
101.33 kPa
Conditions	viscosity [mPa·s]
298.15 K, x2 = 0.03556	37.57
298.15 K, x2 = 0.09927	27.77
298.15 K, x2 = 0.195	18.05
298.15 K, x2 = 0.3013	11.78
298.15 K, x2 = 0.4032	8.207
298.15 K, x2 = 0.5025	5.965
298.15 K, x2 = 0.5936	4.558
298.15 K, x2 = 0.6967	3.452
298.15 K, x2 = 0.7994	2.682
298.15 K, x2 = 0.9144	2.042
298.15 K, x2 = 0.942	1.918
308.15 K, x2 = 0.05805	19.68
308.15 K, x2 = 0.1023	16.23
308.15 K, x2 = 0.1977	11.09
308.15 K, x2 = 0.2949	8.059
308.15 K, x2 = 0.407	5.667
308.15 K, x2 = 0.5051	4.3
308.15 K, x2 = 0.5903	3.441
308.15 K, x2 = 0.7066	2.66
308.15 K, x2 = 0.7992	2.172
308.15 K, x2 = 0.8842	1.81
308.15 K, x2 = 0.9388	1.623
318.15 K, x2 = 0.05313	12.45
318.15 K, x2 = 0.1009	10.51
318.15 K, x2 = 0.1905	7.664
318.15 K, x2 = 0.2992	5.559
318.15 K, x2 = 0.4025	4.21
318.15 K, x2 = 0.5017	3.319
318.15 K, x2 = 0.5999	2.697
318.15 K, x2 = 0.6946	2.204
318.15 K, x2 = 0.7967	1.805
318.15 K, x2 = 0.8916	1.507
318.15 K, x2 = 0.9393	1.378
